Source: the NIST ThermoML archive (doi:10.1016/j.jct.2016.07.026)
± gives the expanded uncertainty stated by the source.

Assay: wn = mass fraction of the nth substance listed
Conditions: 101 kPa, Liquid, Concentric cylinders viscometry

`O=C([O-])[O-].[K+].[K+]` [potassium carbonate] + O gave a viscosity (303.2 K, w1 = 0.15) of 1.27 ± 0.04 mPa·s, a viscosity (303.2 K, w1 = 0.2) of 1.43 ± 0.04 mPa·s and a viscosity (303.2 K, w1 = 0.2501) of 1.64 ± 0.04 mPa·s. For the same compound, the viscosity (313.2 K, w1 = 0.15) was 1.08 ± 0.04 mPa·s, the viscosity (313.2 K, w1 = 0.2) was 1.22 ± 0.04 mPa·s and the viscosity (313.2 K, w1 = 0.2501) was 1.39 ± 0.04 mPa·s. For the same compound, the viscosity (323.2 K, w1 = 0.15) was 0.92 ± 0.04 mPa·s, the viscosity (323.2 K, w1 = 0.2) was 1.05 ± 0.04 mPa·s and the viscosity (323.2 K, w1 = 0.2501) was 1.2 ± 0.04 mPa·s.
